{
  "source": "patent US20260014226A1",
  "about": "“STABLE READY TO DILUTE COMPOSITION OF CARFILZOMIB” (Kashiv BioSciences, LLC, priority 2021, published 2026)",
  "tested_on": "diluted blood (red blood cell)",
  "format": "cell-based, Human",
  "protocol": "The term “hemolytic potential’ refers to ability of fluid to degrade the red blood cell and releases hemoglobin. The hemolytic potential is measured as release of hemoglobin from blood cells. • Blank, Negative and Positive Control • Blank: Diluted Blood • Negative control (Vehicle): 0.9% Sodium chloride (Normal Saline) is isotonic with Human blood. • Positive control: 5% Saponin was used as positive control Required quantity of blood was collected into K2 EDTA vials and immediately mixed well, this was used for the study within 24 hours of blood collection. The blood was maintained at ambient room temperature before use. Hemoglobin was determined using Advia 2120i heamtology system for this purpose, concentrations will be determined twice, before and after dilution. A separate aliquot of blood was centrifuged, and plasma was analyzed for hemoglobin to ensure blood was not hemolyzed before the study. Hemoglobin standard solutions was prepared using human hemoglobin. Initially, a stock solution of 180 mg hemoglobin/mL was prepared in Drabkin's reagent by dissolving the hemoglobin powder in Drabkin's reagent. The working standards of at least 6 different concentrations was prepared in Drabkin's reagent and was read in plate reader at 540 nm wavelength. […]",
  "data": [
    {"substance": "Saponin [Positive control]", "values": [
      {"measurement": "% Hemolysis", "result": 100.00, "unit": "%"}
    ]}
  ]
}
